Results taken from article PMC11303563 (Communications Medicine, 2024).
“And” between values parts separate entries of the source, which are not always exact repeats. Equal entries are not always repeated.

Legend:
[1] = In vitro blood-brain barrier permeability assay (BBB kit RBT-24H); type: in vitro ADME, rat
Procedure: Therefore, we tested BBB transparency in vitro using the BBB kit RBT-24H (PharmaCo-Cell)[35]. […] Blood-brain barrier permeability assay The blood-brain barrier (BBB) transparency of TH analogs was assessed in vitro using RBT-24H (PharmaCo-Cell)[5] according to the manufacturer 's protocol. […] After 30 min, the assay buffer in the wells mimicking the abluminal side was collected, and the concentration of the compounds was measured using liquid chromatography-mass spectrometry (LC-MS). […] These tips were preconditioned with 20 μL of acetonitrile and 20 μL of 0.1% TFA in purified water. 100 μL of the samples were loaded onto the preconditioned tips, washed with 200 μL of DW, and then eluted with 10 μL of acetonitrile. Triazine (1% vol/vol) was added to the eluent as an internal standard. […] 3 μm; Imtakt, Kyoto, Japan). All the experiments were performed using an Ultimate 3000 UHPLC system coupled with a Q Exactive Plus Orbitrap mass spectrometer (Thermo Fisher Scientific). […] Data were shown as mean ± standard deviation (n=3).

THRβ = conditions: cited from earlier work
[2] = tested on: high-fat diet (HFD)-induced obesity model mice; test: Body weight of high-fat diet-induced obesity model mice; type: in vivo, C57BL/6J mice; parameters: Body weight, Mean Diff. ND vs. treated: unit not given here; conditions: for Body weight, 95.00% CI of diff. ND vs. treated / Body weight, Mean Diff. ND vs. treated: ND group as comparator; for Body weight, 95.00% CI of diff. ND vs. treated / Body weight, Mean Diff. ND vs. treated / Body weight, 95.00% CI of diff. Vehicle vs. treated / Body weight, Mean Diff. Vehicle vs. treated: Tukey's multiple comparisons test; for Body weight, Mean Diff. Vehicle vs. treated / Body weight, group mean (Fig. 3a) / Body weight, individual mice (Fig. 3a): in g (unit assumed); for Body weight, group mean (Fig. 3a): n 10
Procedure: The injection was given 6 h after light on. Food consumption and body weights were measured weekly. Food and water were provided to the animals ad libitum. The animals were treated according to the guidelines of Nagoya University, and all experimental procedures were approved by the Animal Experiment Committee of Nagoya University (A210715-003).
(§1) Epididymal adipose tissue was weighed.
(§2) Fig. 3 Effects of intraperitoneal injection of TH analogs on body weight and deposition of visceral fat. […] After three weeks of injection, body weight (a), and weight of the epididymal adipose tissue (b) were measured.

[3] = tested on: high-fat diet (HFD)-induced obesity model mice; test: Weight of epididymal adipose tissue (visceral fat) in HFD mice; type: in vivo, C57BL/6J mice; conditions: for Fig. 3b (weight of epididymal adipose tissue), group mean (Mean 2): n=10; for Fig. 3b (weight of epididymal adipose tissue), group mean (Mean 2) / Fig. 3b (weight of epididymal adipose tissue), Mean Diff. ND vs. treatment (Tukey) / Fig. 3b (weight of epididymal adipose tissue), Mean Diff. Vehicle vs. treatment (Tukey) / Epididymal adipose weight, individual mice (Fig. 3b): in mg (unit assumed); for Fig. 3b (weight of epididymal adipose tissue), Mean Diff. ND vs. treatment (Tukey): ND minus treated; for Fig. 3b (weight of epididymal adipose tissue), Mean Diff. Vehicle vs. treatment (Tukey): Vehicle minus treated
Procedure: as §1, §2

[4] = tested on: high-fat diet (HFD)-induced obesity model mice; test: Serum lipid analysis (total cholesterol, triglycerides) in HFD mice; type: in vivo, C57BL/6J mice; parameters: Serum TC (Fig. 4a), individual mouse values / Serum TG (Fig. 4b), individual mouse values / Serum TC (Fig. 4a), Mean Diff. ND vs. treatment (Tukey) / Serum TC (Fig. 4a), Mean Diff. Vehicle vs. treatment (Tukey) / Serum TC (Fig. 4a), group mean (Mean 2) / Mean Diff., ND vs. treated (Fig. 4b) / Mean Diff., Vehicle vs. treated (Fig. 4b) / Mean (Fig. 4b): unit not given here; conditions: for Serum TC (Fig. 4a), group mean (Mean 2) / Mean (Fig. 4b): n=10; for Serum TC (Fig. 4a), Mean Diff. ND vs. treatment (Tukey): ND minus treated; for Serum TC (Fig. 4a), Mean Diff. Vehicle vs. treatment (Tukey): Vehicle minus treated; for Mean Diff., ND vs. treated (Fig. 4b) / Mean Diff., Vehicle vs. treated (Fig. 4b): Tukey's multiple comparisons test; for Mean (Fig. 4b): group mean
Procedure: Fig. 4 Effects of TH analogs on the accumulation of lipids in mice. […] After 3 weeks of injection, serum and liver tissues were collected, and the amount of serum cholesterol (a), serum triglycerides (b), liver cholesterol (c), liver triglycerides (d), and liver total lipids (e) were measured.

[5] = tested on: THR-regulated genes and lipid metabolism-related genes in the liver
[6] = HFD mice, i.p., dose not given (0.1 or 1 µmol/kg day), 3 weeks
[7] = HFD mice, 1 μmol/kg day, RT-qPCR, reference gene Rps18
[8] = liver gene expression, 1µmol dose group vs. Vehicle

SMILES: Cn1c(=O)c2c(ncn2C)n(C)c1=O [Caffeine]
- Abluminal concentration ([1]; 10 µM on luminal side, 30 min, mean ± standard deviation (n=3)): 0.504 ± 0.0551 µM
- Papp at 30 min, 10 µM ([1]; rat, 10 μM on luminal side, read-out: apparent permeability (Papp)): 76.4 ± 8.35 ×10⁻⁶ cm/s

SMILES: Cc1cc(OCC(=O)O)cc(C)c1Cc1ccc(O)c(Cc2ccccc2)c1 [GC-24]
- selectivity for THRβ against THRα compared with GC-1 (THRβ): ten-fold greater selectivity

SMILES: N[C@@H](Cc1cc(I)c(Oc2ccc(O)c(I)c2)c(I)c1)C(=O)O [T3, triiodothyronine]
- Body weight, 95.00% CI of diff. ND vs. treated ([2]; 0.1 µmol dose group): -15.17 to -6.458
- Body weight, Mean Diff. ND vs. treated ([2]; 0.1 µmol dose group): -10.81
- Body weight, 95.00% CI of diff. Vehicle vs. treated ([2]; 0.1 µmol dose group): -0.6376 to 7.800
- Body weight, Mean Diff. Vehicle vs. treated ([2]; 0.1 µmol dose group): 3.581
- Body weight, 95.00% CI of diff. ND vs. treated ([2]; 1 µmol dose group): -10.58 to -1.870
- Body weight, Mean Diff. ND vs. treated ([2]; 1 µmol dose group): -6.225
- Body weight, 95.00% CI of diff. Vehicle vs. treated ([2]; 1 µmol dose group): 3.950 to 12.39
- Body weight, Mean Diff. Vehicle vs. treated ([2]; 1 µmol dose group): 8.169
- Body weight, group mean (Fig. 3a) ([2]; HFD mice, 0.1 µmol dose group): 39.33
- Body weight, individual mice (Fig. 3a) ([2]; HFD mice, 0.1 µmol dose group): 37.99 and 36.19 and 32.32 and 43.27 and 39.51 and 44.21 and 39.97 and 39.21 and 40.58 and 40.07
- Body weight, group mean (Fig. 3a) ([2]; HFD mice, 1 µmol dose group): 34.74
- Body weight, individual mice (Fig. 3a) ([2]; HFD mice, 1 µmol dose group): 29.82 and 33.07 and 30.29 and 38.87 and 37.72 and 35.76 and 37.12 and 36.01 and 34.61 and 34.17
- body weight vs vehicle (in words) ([2]; HFD mice, i.p. 0.1 µmol/kg day, 3 weeks): did not significantly reduce body weight
- decrease of body weight compared to vehicle ([2]; HFD mice, i.p. 1 µmol/kg day, 3 weeks): ~ 20%
- Fig. 3b (weight of epididymal adipose tissue), group mean (Mean 2) ([3]; 0.1 µmol, HFD mice): 1763
- Fig. 3b (weight of epididymal adipose tissue), Mean Diff. ND vs. treatment (Tukey) ([3]; 0.1 µmol): -1079
- Fig. 3b (weight of epididymal adipose tissue), Mean Diff. Vehicle vs. treatment (Tukey) ([3]; 0.1 µmol): 1095
- Fig. 3b (weight of epididymal adipose tissue), group mean (Mean 2) ([3]; 1 µmol, HFD mice): 1015
- Fig. 3b (weight of epididymal adipose tissue), Mean Diff. ND vs. treatment (Tukey) ([3]; 1 µmol): -331.6
- Fig. 3b (weight of epididymal adipose tissue), Mean Diff. Vehicle vs. treatment (Tukey) ([3]; 1 µmol): 1843
- Epididymal adipose weight, individual mice (Fig. 3b) ([3]; HFD mice, 0.1 µmol dose group): 1857.6 and 1829.3 and 1453.2 and 1516.6 and 740.6 and 1685.1 and 1862.2 and 1976.4 and 2365.6 and 2339.7
- Epididymal adipose weight, individual mice (Fig. 3b) ([3]; HFD mice, 1 µmol dose group): 781.7 and 1090.4 and 983.4 and 966.1 and 975.7 and 1007.4 and 1167.4 and 1184.7 and 1023.2 and 969.5
- weight of the epididymal adipose tissue vs vehicle [3, 6]: decreased significantly
- Serum TC (Fig. 4a), individual mouse values ([4]; 0.1 µmol, HFD mice): 158.333 and 124.25 and 113.833 and 130.625 and 129.792 and 168.458 and 110 and 105.208 and 104.375 and 153.458
- Serum TG (Fig. 4b), individual mouse values ([4]; 0.1 µmol, HFD mice): 79.667 and 70.5 and 70.583 and 116.333 and 98 and 97.167 and 90.5 and 123.833 and 87.167 and 118.833
- Serum TC (Fig. 4a), group mean (Mean 2) ([4]; 0.1 µmol, HFD mice): 129.8
- Serum TC (Fig. 4a), Mean Diff. ND vs. treatment (Tukey) ([4]; 0.1 µmol): 49.59
- Serum TC (Fig. 4a), Mean Diff. Vehicle vs. treatment (Tukey) ([4]; 0.1 µmol): 120.2
- Serum TC (Fig. 4a), individual mouse values ([4]; 1 µmol, HFD mice): 78.333 and 92.5833 and 95.917 and 94.792 and 93.958 and 110.125 and 81.667 and 92.708 and 91.875 and 83.875
- Serum TG (Fig. 4b), individual mouse values ([4]; 1 µmol, HFD mice): 109.75 and 118.917 and 137.25 and 189.75 and 144.75 and 162.25 and 110.583 and 122.25 and 108.917 and 100.583
- Serum TC (Fig. 4a), group mean (Mean 2) ([4]; 1 µmol, HFD mice): 91.58
- Serum TC (Fig. 4a), Mean Diff. ND vs. treatment (Tukey) ([4]; 1 µmol): 87.84
- Serum TC (Fig. 4a), Mean Diff. Vehicle vs. treatment (Tukey) ([4]; 1 µmol): 158.5
- Mean Diff., ND vs. treated (Fig. 4b) ([4]; ND minus 0.1 µmol group): 51.51
- Mean Diff., ND vs. treated (Fig. 4b) ([4]; ND minus 1 µmol group): 16.27
- Mean Diff., Vehicle vs. treated (Fig. 4b) ([4]; Vehicle minus 0.1 µmol group): 20.52
- Mean Diff., Vehicle vs. treated (Fig. 4b) ([4]; Vehicle minus 1 µmol group): -14.72
- Mean (Fig. 4b) ([4]; 0.1 µmol, HFD mice): 95.26
- Mean (Fig. 4b) ([4]; 1 µmol, HFD mice): 130.5
- serum triglyceride level vs vehicle [4, 6]: no significant difference
- Dio1 expression in the liver, individual animal values ([5]; 1µmol, one value per animal): 3.359 and 3.177 and 2.594 and 3.891 and 4.465 and 3.761 and 2.009 and 5.092 and 4.047 and 3.355
- Ldlr expression in the liver, individual animal values ([5]; 1µmol, one value per animal): 0.07802 and 0.2909 and 0.1661 and 1.188 and 1.197 and 0.8436 and 2.271 and 0.5624 and 0.08829 and 0.1717
- Me1 expression in the liver, individual animal values ([5]; 1µmol, one value per animal): 1.618 and 1.709 and 1.627 and 3.524 and 2.735 and 3.173 and 4.935 and 5.075 and 3.984 and 2.564
- Pnpla2 expression in the liver, individual animal values ([5]; 1µmol, one value per animal): 0.3078 and 2.165 and 2.21 and 1.997 and 2.671 and 3.066 and 2.607 and 3.3336 and 0.6308 and 1.108
- Srebp1c expression in the liver, individual animal values ([5]; 1µmol, one value per animal): 0.06015 and 0.2255 and 0.1838 and 0.1704 and 0.1322 and 0.09864 and 0.3225 and 0.5342 and 0.08549 and 0.1455
- Thrsp expression in the liver, individual animal values ([5]; 1µmol, one value per animal): 1.539 and 1.364 and 0.6114 and 1.153 and 1.565 and 1.274 and 1.191 and 0.8905 and 1.332 and 1.012
- liver expression of Dio1 vs vehicle [5, 7]: significantly upregulated
- liver expression of Ldlr vs vehicle [5, 7]: not significantly different
- liver expression of Me1 vs vehicle [5, 7]: significantly upregulated
- liver expression of Srebp1c vs vehicle [5, 7]: significantly lower
- liver expression of Thrsp vs vehicle [5, 7]: no significant difference
- Pnpla2, Dunn's multiple comparisons test, Mean rank diff. (Vehicle vs. compound) [5, 8]: -12.5
- Srebp1c, Dunn's multiple comparisons test, Mean rank diff. (Vehicle vs. compound) [5, 8]: 17.87
- Pnpla2, Mean rank of treatment group (Mean rank 2) ([5]; liver gene expression, 1µmol dose group, Vehicle mean rank 8): 20.5
- Srebp1c, Mean rank of treatment group (Mean rank 2) ([5]; liver gene expression, 1µmol dose group, Vehicle mean rank […]): 15.8
